{
  "source": "patent US20080146669A1",
  "about": "“Novel Chloride Channel Pore Openers” (THE UAB RESEARCH FOUNDATION, priority 2005, published 2008)",
  "key": {"wild-type CFTR": {"biological_target": "wild-type CFTR (Homo sapiens, UniProt P13569)", "sequence (P13569 whole entry)": "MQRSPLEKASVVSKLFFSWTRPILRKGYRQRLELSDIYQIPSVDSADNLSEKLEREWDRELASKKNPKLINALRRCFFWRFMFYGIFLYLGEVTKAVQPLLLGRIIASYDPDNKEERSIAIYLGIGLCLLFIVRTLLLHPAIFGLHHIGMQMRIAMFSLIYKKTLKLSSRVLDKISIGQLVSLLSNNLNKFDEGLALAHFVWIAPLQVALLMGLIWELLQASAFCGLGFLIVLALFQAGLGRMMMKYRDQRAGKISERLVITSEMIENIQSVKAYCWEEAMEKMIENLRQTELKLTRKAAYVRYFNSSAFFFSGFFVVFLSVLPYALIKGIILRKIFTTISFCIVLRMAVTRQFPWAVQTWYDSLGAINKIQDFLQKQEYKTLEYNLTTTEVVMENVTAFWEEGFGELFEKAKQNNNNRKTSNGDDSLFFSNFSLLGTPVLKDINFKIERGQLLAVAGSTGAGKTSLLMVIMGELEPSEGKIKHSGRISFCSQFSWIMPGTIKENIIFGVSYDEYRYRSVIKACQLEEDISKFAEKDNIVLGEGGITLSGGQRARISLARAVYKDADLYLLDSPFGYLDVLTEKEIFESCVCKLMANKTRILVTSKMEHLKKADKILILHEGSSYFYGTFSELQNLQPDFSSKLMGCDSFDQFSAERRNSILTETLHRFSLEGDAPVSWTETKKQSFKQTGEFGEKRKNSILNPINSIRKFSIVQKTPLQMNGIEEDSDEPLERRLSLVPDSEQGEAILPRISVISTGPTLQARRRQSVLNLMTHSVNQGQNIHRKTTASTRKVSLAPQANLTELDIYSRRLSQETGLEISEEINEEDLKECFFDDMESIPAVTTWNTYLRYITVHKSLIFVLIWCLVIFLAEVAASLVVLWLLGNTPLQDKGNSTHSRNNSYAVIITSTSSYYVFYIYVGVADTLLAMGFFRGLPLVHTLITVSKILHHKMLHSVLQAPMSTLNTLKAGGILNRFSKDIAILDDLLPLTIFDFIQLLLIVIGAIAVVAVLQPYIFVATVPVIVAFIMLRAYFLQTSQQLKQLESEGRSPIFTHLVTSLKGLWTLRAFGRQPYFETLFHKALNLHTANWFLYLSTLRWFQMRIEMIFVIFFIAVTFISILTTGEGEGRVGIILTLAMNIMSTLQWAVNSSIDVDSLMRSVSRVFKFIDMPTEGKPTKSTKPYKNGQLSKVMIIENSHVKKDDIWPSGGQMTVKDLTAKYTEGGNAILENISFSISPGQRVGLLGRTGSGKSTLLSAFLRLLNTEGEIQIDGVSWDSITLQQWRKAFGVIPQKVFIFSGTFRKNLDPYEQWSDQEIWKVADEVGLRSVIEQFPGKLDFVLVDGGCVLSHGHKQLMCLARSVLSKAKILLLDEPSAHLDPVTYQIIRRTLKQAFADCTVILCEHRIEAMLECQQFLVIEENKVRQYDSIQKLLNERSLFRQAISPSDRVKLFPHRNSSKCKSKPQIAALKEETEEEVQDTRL", "assay": "Macroscopic currents in excised inside-out patches from BHK-CFTR cells", "type": "biochemical", "set-up": "expressed in transfected cells; provided by J. Hanrahan (McGill University)", "procedure": "Cell culture DNA constructs and transfections. Baby hamster kidney (BHK) cells stably expressing wild type human CFTR (BHK-CFTR) were provided by J. Hanrahan (McGill University). BHK-CFTR cells were cultured in Dulbecco's modified Eagle's medium (DMEM (Mediatech)) supplemented with 5% fetal bovine serum (FBS) and 1 mM penicillin-streptomycin. The growth media for the BHK-CFTR cells also contained 0.5 mM methotrexate to maintain selection for CFTR-expressing cells (22). HEK-293T cells were transiently transfected with wild-type or mutant CFTR cDNA using the Lipofectamine transfection kit following manufacturer's recommendations (Invitrogen, Corp). HEK-293T cells were cultured in DMEM. All cells were grown on plastic coverslips for patch clamp recording and were used 2-3 days post-seeding. Electrophysiology and data analysis. Macroscopic and multi-channel currents were recorded in the excised, inside-out configuration. Patch pipettes were pulled from Corning 8161 glass to tip resistances of […] (macroscopic recordings) or 8-10 mOhm (micropatch studies). […] CFTR currents were recorded in symmetrical solution containing (in mM): 140 N-methyl-D-glucaniine-Cl, 3 MgCl2, 1 EGTA and 10 TES. The pH was adjusted to 7.3. Macroscopic currents were evoked using a ramp protocol from +80 to −80 mV with a 10 sec time period. Patches were held at −80 mV or +80 mV for micropatch (multichannel) recordings. All patch clamp experiments were performed at 21-23° C. Signals from macroscopic and single channel recording were filtered at 20 and 200 Hz, respectively. Data acquisition and analysis were performed using pCLAMP8 and pCLAMP9 software (Axon Instruments). Curve fitting for kinetic analysis was performed using Microcal Origin software. Averaged data are presented as mean +/−SEM. Statistical comparisons were made by performing unpaired t-tests unless otherwise indicated. Ussing Chamber Experiments-CFBE41o epithelial cells stably transfected with ΔF508-CFTR or transiently transfected with wild-type CFTR were cultured as electrically resistive monolayers and assayed in Ussing chambers as described (16). ΔF508-CFTR-expressing monolayers were grown at 27° C. for 2-3 days to enhance the surface expression of this temperature-sensitive mutant. A serosal-to-mucosal Cl^− gradient (120 to 1.2 mM) was imposed, followed by amiloride addition (100 μM) to block Na^+ currents. Compounds were added to both chambers at the indicated concentrations. A 3-mV voltage pulse was imposed every 100 s to monitor transepithelial resistance."}, "ΔF508-CFTR [1]": {"biological_target": "T1, ΔF508-CFTR (Homo sapiens, UniProt P13569, DEL508-508)", "T1 construct": "expressed in transfected cells; host or cells: HEK-293T, transient; grown at 28° C. for 24 hrs", "T1 sequence (P13569 with tags, fused parts or gaps DEL508-508)": "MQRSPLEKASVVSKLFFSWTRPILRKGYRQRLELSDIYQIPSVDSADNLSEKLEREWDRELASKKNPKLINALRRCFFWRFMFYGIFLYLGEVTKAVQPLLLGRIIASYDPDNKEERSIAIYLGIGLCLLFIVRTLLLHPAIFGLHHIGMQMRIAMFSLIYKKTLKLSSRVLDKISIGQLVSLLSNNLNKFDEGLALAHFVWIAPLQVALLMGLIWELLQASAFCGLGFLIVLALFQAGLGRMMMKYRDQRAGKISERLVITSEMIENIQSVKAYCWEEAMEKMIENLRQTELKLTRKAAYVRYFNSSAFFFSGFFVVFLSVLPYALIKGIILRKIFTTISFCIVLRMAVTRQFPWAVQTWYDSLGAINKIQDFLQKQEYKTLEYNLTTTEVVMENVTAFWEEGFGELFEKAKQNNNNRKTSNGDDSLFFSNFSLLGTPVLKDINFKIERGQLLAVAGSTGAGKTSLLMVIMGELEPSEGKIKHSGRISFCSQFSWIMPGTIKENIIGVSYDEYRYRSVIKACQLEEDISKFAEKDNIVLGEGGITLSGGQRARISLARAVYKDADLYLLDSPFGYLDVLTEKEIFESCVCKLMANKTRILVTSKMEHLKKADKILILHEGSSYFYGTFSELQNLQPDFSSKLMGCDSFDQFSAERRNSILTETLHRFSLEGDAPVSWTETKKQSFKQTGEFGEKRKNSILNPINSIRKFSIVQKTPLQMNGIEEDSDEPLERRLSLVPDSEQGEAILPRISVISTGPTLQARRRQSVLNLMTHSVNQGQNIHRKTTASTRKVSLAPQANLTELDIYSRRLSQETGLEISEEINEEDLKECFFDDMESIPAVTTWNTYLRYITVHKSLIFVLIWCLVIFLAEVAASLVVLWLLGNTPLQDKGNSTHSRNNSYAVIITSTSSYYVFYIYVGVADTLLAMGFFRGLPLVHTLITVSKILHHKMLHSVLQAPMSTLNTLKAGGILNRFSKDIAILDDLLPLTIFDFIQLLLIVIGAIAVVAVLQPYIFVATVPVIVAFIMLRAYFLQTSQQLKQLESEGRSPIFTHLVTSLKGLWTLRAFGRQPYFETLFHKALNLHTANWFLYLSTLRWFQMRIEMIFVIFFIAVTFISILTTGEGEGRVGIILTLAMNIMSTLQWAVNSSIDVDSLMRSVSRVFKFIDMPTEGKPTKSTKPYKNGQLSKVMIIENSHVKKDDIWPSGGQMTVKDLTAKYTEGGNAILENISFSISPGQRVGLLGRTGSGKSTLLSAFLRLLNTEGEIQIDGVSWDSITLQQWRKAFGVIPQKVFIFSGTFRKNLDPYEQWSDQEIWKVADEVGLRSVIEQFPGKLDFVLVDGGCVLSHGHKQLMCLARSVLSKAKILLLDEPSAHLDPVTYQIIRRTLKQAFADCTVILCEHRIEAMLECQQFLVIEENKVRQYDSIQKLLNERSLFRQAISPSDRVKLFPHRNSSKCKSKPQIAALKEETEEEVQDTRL", "assay": "Ussing chamber transepithelial chloride currents, temperature-corrected ΔF508-CFTR CFBE41o- monolayers", "type": "cell-based", "conditions": "1 μM compound with 1 μM forskolin; N=8-12", "procedure": "(§1) Cell culture DNA constructs and transfections. Baby hamster kidney (BHK) cells stably expressing wild type human CFTR (BHK-CFTR) were provided by J. Hanrahan (McGill University). BHK-CFTR cells were cultured in Dulbecco's modified Eagle's medium (DMEM (Mediatech)) supplemented with 5% fetal bovine serum (FBS) and 1 mM penicillin-streptomycin. The growth media for the BHK-CFTR cells also contained 0.5 mM methotrexate to maintain selection for CFTR-expressing cells (22). HEK-293T cells were transiently transfected with wild-type or mutant CFTR cDNA using the Lipofectamine transfection kit following manufacturer's recommendations (Invitrogen, Corp). HEK-293T cells were cultured in DMEM. All cells were grown on plastic coverslips for patch clamp recording and were used 2-3 days post-seeding. Electrophysiology and data analysis. Macroscopic and multi-channel currents were recorded in the excised, inside-out configuration. Patch pipettes were pulled from Corning 8161 glass to tip resistances of […] (macroscopic recordings) or 8-10 mOhm (micropatch studies). CFTR channels were activated following patch excision by exposure of the cytoplasmic face of the patch to catalytic subunit of protein kinase A (PKA; 110 U/ml; Promega) and Mg-ATP (1.5 mM). CFTR currents were recorded in symmetrical solution containing (in mM): 140 N-methyl-D-glucaniine-Cl, 3 MgCl2, 1 EGTA and 10 TES. The pH was adjusted to 7.3. Macroscopic currents were evoked using a ramp protocol from +80 to −80 mV with a 10 sec time period. Patches were held at −80 mV or +80 mV for micropatch (multichannel) recordings. All patch clamp experiments were performed at 21-23° C. Signals from macroscopic and single channel recording were filtered at 20 and 200 Hz, respectively. Data acquisition and analysis were performed using pCLAMP8 and pCLAMP9 software (Axon Instruments). Curve fitting for kinetic analysis was performed using Microcal Origin software. Averaged data are presented as mean +/−SEM. Statistical comparisons were made by performing unpaired t-tests unless otherwise indicated. Ussing Chamber Experiments-CFBE41o epithelial cells stably transfected with ΔF508-CFTR or transiently transfected with wild-type CFTR were cultured as electrically resistive monolayers and assayed in Ussing chambers as described (16). ΔF508-CFTR-expressing monolayers were grown at 27° C. for 2-3 days to enhance the surface expression of this temperature-sensitive mutant. A serosal-to-mucosal Cl^− gradient (120 to 1.2 mM) was imposed, followed by amiloride addition (100 μM) to block Na^+ currents. Compounds were added to both chambers at the indicated concentrations. A 3-mV voltage pulse was imposed every 100 s to monitor transepithelial resistance."}, "AF508-CFTR": {"tested_on": "AF508-CFTR", "conditions": "tissue culture cells and mice; reported by Egan et al. (12); cited from earlier work"}, "ΔF508-CFTR [2]": {"biological_target": "T1, ΔF508-CFTR", "assay": "Macroscopic currents in excised patches from temperature-corrected HEK-293T cells expressing ΔF508-CFTR", "type": "biochemical", "conditions": "high PKA 110 U/ml without PKI", "procedure": "as §1"}, "AR-S660A-CFTR": {"biological_target": "T2, AR-S660A-CFTR (Homo sapiens, UniProt P13569, DEL708-835/S660A)", "T2 construct": "expressed in transfected cells; host or cells: HEK-293T, transient", "T2 sequence (P13569 with tags, fused parts or gaps S660A/DEL708-835)": "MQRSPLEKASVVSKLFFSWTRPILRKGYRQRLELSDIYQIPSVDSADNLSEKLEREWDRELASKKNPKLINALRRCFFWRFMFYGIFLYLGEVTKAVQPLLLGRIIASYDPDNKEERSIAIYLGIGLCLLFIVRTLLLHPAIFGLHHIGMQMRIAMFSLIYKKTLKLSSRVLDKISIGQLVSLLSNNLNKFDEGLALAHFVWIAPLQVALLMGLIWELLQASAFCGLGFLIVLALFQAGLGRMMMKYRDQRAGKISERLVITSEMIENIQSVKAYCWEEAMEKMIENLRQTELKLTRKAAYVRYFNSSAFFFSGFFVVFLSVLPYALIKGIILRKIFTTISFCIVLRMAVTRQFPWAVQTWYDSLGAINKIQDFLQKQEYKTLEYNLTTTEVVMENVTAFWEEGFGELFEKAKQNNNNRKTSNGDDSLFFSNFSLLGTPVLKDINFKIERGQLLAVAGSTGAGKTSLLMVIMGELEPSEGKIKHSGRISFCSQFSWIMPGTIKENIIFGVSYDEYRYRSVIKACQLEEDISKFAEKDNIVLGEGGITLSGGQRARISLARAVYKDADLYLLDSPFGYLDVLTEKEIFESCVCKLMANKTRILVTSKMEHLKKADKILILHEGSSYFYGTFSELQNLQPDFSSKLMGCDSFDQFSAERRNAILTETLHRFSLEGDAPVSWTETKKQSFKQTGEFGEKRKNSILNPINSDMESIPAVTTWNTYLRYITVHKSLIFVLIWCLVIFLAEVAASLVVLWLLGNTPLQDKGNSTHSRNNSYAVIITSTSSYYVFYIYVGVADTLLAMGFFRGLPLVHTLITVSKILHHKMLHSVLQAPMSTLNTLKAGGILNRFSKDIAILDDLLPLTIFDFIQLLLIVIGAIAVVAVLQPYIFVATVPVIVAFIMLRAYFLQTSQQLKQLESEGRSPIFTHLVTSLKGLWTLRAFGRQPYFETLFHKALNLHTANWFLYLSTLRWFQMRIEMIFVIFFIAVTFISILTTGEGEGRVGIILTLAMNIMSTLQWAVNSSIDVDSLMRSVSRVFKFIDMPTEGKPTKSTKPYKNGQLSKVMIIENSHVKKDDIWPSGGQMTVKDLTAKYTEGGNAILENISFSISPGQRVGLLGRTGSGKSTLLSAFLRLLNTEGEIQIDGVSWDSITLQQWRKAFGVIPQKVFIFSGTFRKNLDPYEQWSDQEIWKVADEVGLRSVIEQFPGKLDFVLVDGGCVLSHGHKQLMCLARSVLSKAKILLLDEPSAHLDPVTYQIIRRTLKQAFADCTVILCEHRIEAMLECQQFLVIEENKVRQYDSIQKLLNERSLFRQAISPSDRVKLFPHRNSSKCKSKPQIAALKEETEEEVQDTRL", "assay": "Macroscopic currents in excised HEK-293T patches, R domain deletion mutant, no PKA", "type": "biochemical", "conditions": "50 μM", "procedure": "Cell culture DNA constructs and transfections. Baby hamster kidney (BHK) cells stably expressing wild type human CFTR (BHK-CFTR) were provided by J. Hanrahan (McGill University). BHK-CFTR cells were cultured in Dulbecco's modified Eagle's medium (DMEM (Mediatech)) supplemented with 5% fetal bovine serum (FBS) and 1 mM penicillin-streptomycin. The growth media for the BHK-CFTR cells also contained 0.5 mM methotrexate to maintain selection for CFTR-expressing cells (22). HEK-293T cells were transiently transfected with wild-type or mutant CFTR cDNA using the Lipofectamine transfection kit following manufacturer's recommendations (Invitrogen, Corp). HEK-293T cells were cultured in DMEM. All cells were grown on plastic coverslips for patch clamp recording and were used 2-3 days post-seeding. Electrophysiology and data analysis. Macroscopic and multi-channel currents were recorded in the excised, inside-out configuration. Patch pipettes were pulled from Corning 8161 glass to tip resistances of […] (macroscopic recordings) or 8-10 mOhm (micropatch studies). CFTR channels were activated following patch excision by exposure of the cytoplasmic face of the patch to catalytic subunit of protein kinase A (PKA; 110 U/ml; Promega) and Mg-ATP (1.5 mM). CFTR currents were recorded in symmetrical solution containing (in mM): 140 N-methyl-D-glucaniine-Cl, 3 MgCl2, 1 EGTA and 10 TES. […]"}, "R347D-CFTR": {"biological_target": "T3, R347D-CFTR (Homo sapiens, UniProt P13569, R347D)", "T3 construct": "expressed in transfected cells; host or cells: HEK-293T, transient", "T3 sequence (P13569 whole entry R347D)": "as the sequence (P13569 whole entry) above, with R347D counted along it", "assay": "Macroscopic currents in excised patches from HEK-293T cells transiently transfected with R347D-CFTR", "type": "biochemical", "experimental": "HEK-293T cells were transiently transfected with wild-type or mutant CFTR cDNA using the Lipofectamine transfection kit following manufacturer's recommendations (Invitrogen, Corp). HEK-293T cells were cultured in DMEM. All cells were grown on plastic coverslips for patch clamp recording and were used 2-3 days post-seeding. […] Macroscopic and multi-channel currents were recorded in the excised, inside-out configuration. Patch pipettes were pulled from Corning 8161 glass to tip resistances of 1.5-3.0 mOhm (macroscopic recordings) or 8-10 mOhm (micropatch studies). CFTR channels were activated following patch excision by exposure of the cytoplasmic face of the patch to catalytic subunit of protein kinase A (PKA; 110 U/ml; Promega) and Mg-ATP (1.5 mM). CFTR currents were recorded in symmetrical solution containing (in mM): 140 N-methyl-D-glucaniine-Cl, 3 MgCl2, 1 EGTA and 10 TES. The pH was adjusted to 7.3. Macroscopic currents were evoked using a ramp protocol from +80 to −80 mV with a 10 sec time period. Patches were held at −80 mV or +80 mV for micropatch (multichannel) recordings. All patch clamp experiments were performed at 21-23° C. Signals from macroscopic and single channel recording were filtered at 20 and 200 Hz, respectively. Data acquisition and analysis were performed using pCLAMP8 and pCLAMP9 software (Axon Instruments). […]"}, "CFTR-minus cells": {"tested_on": "CFTR-minus cells", "assay": "Currents across patches excised from CFTR-minus (untransfected) cells", "type": "biochemical", "procedure": "as §1"}, "G551D-CFTR": {"biological_target": "T4, G551D-CFTR (Homo sapiens, UniProt P13569, G551D)", "T4 construct": "expressed in transfected cells; host or cells: HEK-293T, transient", "T4 sequence (P13569 whole entry G551D)": "as the sequence (P13569 whole entry) above, with G551D counted along it", "assay": "Macroscopic currents in excised patches from HEK-293T cells expressing G551D-CFTR", "type": "biochemical", "procedure": "as §1, with “Ussing Chamber Experiments-CFBE41o epithelial cells stably transfected with ΔF508-CFTR or transiently transfected with wild-type CFTR were cultured as electrically resistive monolayers and assayed in Ussing chambers as described (16). ΔF508-CFTR-expressing monolayers were grown at 27° C. for 2-3 days to enhance the surface expression of this temperature-sensitive mutant. A serosal-to-mucosal Cl^− gradient (120 to 1.2 mM) was imposed, followed by amiloride addition (100 μM) to block Na^+ currents. Compounds were added to both chambers at the indicated concentrations. A 3-mV voltage pulse was imposed every 100 s to monitor transepithelial resistance.” left out"}},
  "data": [
    {"smiles": "NS(=O)(=O)c1cc([N+](=O)[O-])ccc1NCCCc1ccccc1", "note": "[NPPB-sulf]", "values": [
      {"measurement": "effect on CFTR channel activity", "setting": "wild-type CFTR; 100 μM, data not shown", "value": "weak effect"}
    ]},
    {"smiles": "O=c1c(-c2ccc(O)cc2)coc2cc(O)cc(O)c12", "note": "[genistein, reference compound]", "values": [
      {"measurement": "potentiation of the forskolin effect on ΔF508-CFTR transepithelial currents", "setting": "ΔF508-CFTR [1]", "value": "failed to potentiate the forskolin response"}
    ]},
    {"smiles": "O=C(O)c1ccccc1Nc1ccccc1", "note": "[DPC, reference compound]", "values": [
      {"measurement": "increased CFTR currents, thiolated channels", "setting": "wild-type CFTR; 0.5 mM", "value": "neither"}
    ]},
    {"smiles": "COc1cc(/C=C/C(=O)CC(=O)/C=C/c2ccc(O)c(OC)c2)ccc1O", "note": "[curcumin]", "values": [
      {"measurement": "biosynthetic maturation and functional correction of the ΔF508-CFTR mutant", "setting": "AF508-CFTR", "value": "promotes the biosynthetic maturation and functional correction"},
      {"measurement": "time course and reversibility of the stimulation of CFTR current", "setting": "wild-type CFTR", "value": "transient"},
      {"measurement": "voltage dependence of the stimulation of CFTR current", "setting": "wild-type CFTR", "value": "voltage-independent"},
      {"measurement": "effect on moderately phosphorylated CFTR channels", "setting": "wild-type CFTR; 0.5-40.5 μM, six experiments", "value": "stimulates moderately phosphorylated CFTR channels"},
      {"measurement": "effect on ΔF508-CFTR macroscopic currents", "setting": "ΔF508-CFTR [2]; 10 μM", "value": "dramatically stimulated"}
    ]},
    {"smiles": "O=C(O)c1cc([N+](=O)[O-])ccc1NCCCc1ccccc1", "note": "[NPPB, 5-nitro-2-(3-phenylpropyl-amino)-benzoic acid, reference compound]", "values": [
      {"measurement": "effect on currents in the absence of PKA", "setting": "AR-S660A-CFTR", "value": "markedly stimulate"},
      {"measurement": "stimulation of R347D-CFTR currents at depolarizing potentials compared with wild type", "setting": "R347D-CFTR; all levels of phosphorylation", "value": "to a greater extent than for wild type CFTR"},
      {"measurement": "effect on currents of moderately phosphorylated R347D-CFTR channels", "setting": "R347D-CFTR; low doses, high PKA followed by PKI", "value": "stimulates currents in both directions"},
      {"measurement": "effect on macroscopic current of thiolated (glutathionylated) CFTR channels", "setting": "wild-type CFTR; 200 μM, high PKA 110 U/ml, 1.5 mM MgATP, PKI, diamide/GSH 20 μM", "value": "a large increase in current at depolarizing voltages"},
      {"measurement": "effect on currents of moderately phosphorylated wild-type channels", "setting": "wild-type CFTR; 5-300 μM, high PKA followed by PKI, seven experiments", "value": "voltage-dependent block at all doses"},
      {"measurement": "effect on currents of poorly phosphorylated, not thiolated CFTR channels", "setting": "wild-type CFTR; 30-230 μM, low PKA 2 U/ml followed by PKI", "value": "stimulated CFTR currents at depolarizing potentials"},
      {"measurement": "effect on currents of highly phosphorylated CFTR channels", "setting": "wild-type CFTR; continuous high PKA 110 U/ml without PKI", "value": "Only voltage-dependent block"},
      {"measurement": "effect on currents of poorly phosphorylated CFTR channels at higher concentrations", "setting": "wild-type CFTR; higher concentrations of NPPB, low PKA then PKI", "value": "block was observed at all recording potentials"},
      {"measurement": "current induced at depolarizing potential in patches excised from CFTR-minus cells", "setting": "CFTR-minus cells", "value": "absent"},
      {"measurement": "effect on currents across a patch from untransfected HEK-293T cells", "setting": "CFTR-minus cells; untransfected HEK-293T", "value": "neither"},
      {"measurement": "effect on G551D-CFTR activity", "setting": "G551D-CFTR; 200-400 μM", "value": "markedly stimulated"},
      {"measurement": "concentration dependence of G551D-CFTR activation compared to the wild type channel", "setting": "G551D-CFTR; NPPB titration, wild type activated with low PKA", "value": "appreciable shift toward higher concentrations"},
      {"measurement": "effect on ΔF508-CFTR macroscopic currents", "setting": "ΔF508-CFTR [2]; 100 μM", "value": "dramatically stimulated"}
    ]},
    {"smiles": "N#CS", "note": "[SCN^−, reference compound]", "values": [
      {"measurement": "increased CFTR currents, thiolated channels", "setting": "wild-type CFTR; 10 mM", "value": "neither"}
    ]},
    {"smiles": "NC(CCc1ccccc1)C(=O)O", "note": "(stereo not drawn) [APB, reference compound]", "values": [
      {"measurement": "stimulation of thiolated CFTR channels", "setting": "wild-type CFTR; 400 μM, same conditions as FIG. 1A", "value": "fails to stimulate"}
    ]},
    {"smiles": "COc1ccc(Cl)cc1C(=O)NCCc1ccc(S(=O)(=O)NC(=O)NC2CCCCC2)cc1", "note": "[glibenclamide]", "values": [
      {"measurement": "current induced at depolarizing potential in patches excised from CFTR-minus cells", "setting": "CFTR-minus cells", "value": "absent"}
    ]}
  ]
}
